A short description of assay [1]: Inhibition of Bifidobacterium longum subsp. infantis ATCC 15697 sialidase 2 (BiNanH2) using Neu5Acalpha2-3GalbetapNP as substrate after 30 mins by colorimetric assay.
A further assay addresses T1, Neuraminidase C (Streptococcus pneumoniae, UniProt A0A0B7LH44).
T1 sequence (A0A0B7LH44 whole entry): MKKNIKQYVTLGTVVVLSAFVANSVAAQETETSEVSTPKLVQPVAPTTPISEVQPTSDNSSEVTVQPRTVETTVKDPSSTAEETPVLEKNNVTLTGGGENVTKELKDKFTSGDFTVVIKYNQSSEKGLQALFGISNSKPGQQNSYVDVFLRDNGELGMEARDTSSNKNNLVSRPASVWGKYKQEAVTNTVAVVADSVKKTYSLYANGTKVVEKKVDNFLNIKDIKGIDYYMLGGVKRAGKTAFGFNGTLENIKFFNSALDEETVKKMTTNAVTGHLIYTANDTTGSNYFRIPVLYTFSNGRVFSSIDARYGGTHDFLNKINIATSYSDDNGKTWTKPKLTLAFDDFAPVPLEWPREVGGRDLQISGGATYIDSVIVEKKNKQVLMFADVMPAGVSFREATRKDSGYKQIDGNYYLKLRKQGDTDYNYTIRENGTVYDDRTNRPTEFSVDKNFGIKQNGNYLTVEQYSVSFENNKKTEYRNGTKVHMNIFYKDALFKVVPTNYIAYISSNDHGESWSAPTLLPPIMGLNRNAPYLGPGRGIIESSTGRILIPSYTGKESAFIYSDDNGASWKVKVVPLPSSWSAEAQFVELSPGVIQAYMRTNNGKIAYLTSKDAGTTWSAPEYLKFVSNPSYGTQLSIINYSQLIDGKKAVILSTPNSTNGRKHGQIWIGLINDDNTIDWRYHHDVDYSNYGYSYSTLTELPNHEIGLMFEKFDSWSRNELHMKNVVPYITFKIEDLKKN
Kind of assay: Inhibition of Streptococcus pneumoniae sialidase NanC using Neu5Acalpha2-3GalbetapNP as substrate after 30 mins by colorimetric assay.

Assay [2] in a line: Inhibition of Pasteurella multocida sialyltransferase 1 using Neu5Acalpha2-3GalbetapNP as substrate after 30 mins by colorimetric assay.
Assay [3] deals with T2, Neuraminidase C (Streptococcus pneumoniae) (UniProt A0A0B7LH44).
T2 sequence (whole entry): T1 sequence (A0A0B7LH44 whole entry)
Particulars: at 1 mM.

Another assay addresses T3, Sialidase B (Streptococcus pneumoniae serotype 4 (strain ATCC BAA-334 / TIGR4), UniProt Q54727).
T3 sequence (Q54727 whole entry): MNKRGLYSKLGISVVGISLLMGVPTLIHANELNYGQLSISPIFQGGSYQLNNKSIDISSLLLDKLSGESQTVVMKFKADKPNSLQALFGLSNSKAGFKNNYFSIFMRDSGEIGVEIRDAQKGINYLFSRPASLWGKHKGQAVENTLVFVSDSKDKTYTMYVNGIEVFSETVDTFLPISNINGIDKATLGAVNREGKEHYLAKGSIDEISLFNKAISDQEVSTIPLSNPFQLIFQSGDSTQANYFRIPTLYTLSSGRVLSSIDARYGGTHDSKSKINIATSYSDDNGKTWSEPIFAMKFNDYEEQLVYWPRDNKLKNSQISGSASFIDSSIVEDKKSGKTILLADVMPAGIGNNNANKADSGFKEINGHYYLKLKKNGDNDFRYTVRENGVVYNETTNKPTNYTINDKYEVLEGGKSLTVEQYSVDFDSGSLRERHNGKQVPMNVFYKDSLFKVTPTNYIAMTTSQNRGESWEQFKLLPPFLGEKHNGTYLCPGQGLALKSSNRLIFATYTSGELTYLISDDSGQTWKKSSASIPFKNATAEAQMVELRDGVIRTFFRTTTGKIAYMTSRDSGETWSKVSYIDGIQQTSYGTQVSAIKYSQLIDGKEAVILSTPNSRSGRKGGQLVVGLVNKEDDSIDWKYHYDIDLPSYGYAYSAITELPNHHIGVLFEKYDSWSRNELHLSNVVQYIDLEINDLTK
The assay can be described thus: Inhibition of Streptococcus pneumoniae NanB using Neu5Acalpha2-3GalbetapNP as substrate after 30 mins by colorimetric assay.

The target in assay [4] is T2, Neuraminidase C (Streptococcus pneumoniae). As to conditions: at 0.1 mM.
The target of assay [5] is T4, Sialidase (Clostridium perfringens) (UniProt P10481).
T4 sequence (whole entry): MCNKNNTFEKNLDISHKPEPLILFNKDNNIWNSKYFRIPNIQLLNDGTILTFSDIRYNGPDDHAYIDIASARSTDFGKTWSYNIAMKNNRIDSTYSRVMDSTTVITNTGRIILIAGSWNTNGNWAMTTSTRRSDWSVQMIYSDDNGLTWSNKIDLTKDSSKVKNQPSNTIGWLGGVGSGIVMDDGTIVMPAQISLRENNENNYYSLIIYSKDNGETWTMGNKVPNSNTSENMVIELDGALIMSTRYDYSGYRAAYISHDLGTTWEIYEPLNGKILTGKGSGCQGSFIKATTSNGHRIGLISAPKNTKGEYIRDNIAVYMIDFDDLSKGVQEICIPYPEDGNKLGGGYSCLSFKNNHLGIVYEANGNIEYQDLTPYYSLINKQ
As to conditions: at 0.1 mM.

The target of assay [6] is T5, Sialidase B (Streptococcus pneumoniae serotype 4 (strain ATCC BAA-334 / TIGR4)) (UniProt Q54727).
T5 sequence (whole entry): T3 sequence (Q54727 whole entry)
As to conditions: at 0.1 mM.

Assay [7] addresses Sialidase (Vibrio cholerae serotype O1 (strain ATCC 39315 / El Tor Inaba N16961)) (UniProt P0C6E9). Particulars: at 0.1 mM.
The nature of assay [8]: Inhibition of Arthrobacter ureafaciens sialidase using Neu5Acalpha2-3GalbetapNP as substrate after 30 mins by colorimetric assay. More on the design: species or system Paenarthrobacter ureafaciens.
The subject of assay [9] is Pasteurella multocida. Particulars: at 1 mM.
Assay [10] deals with Bifidobacterium longum subsp. infantis. Particulars: ATCC 15697, at 0.1 mM.
Assay [11] addresses Sialidase A (Streptococcus pneumoniae) (UniProt P62575). As to conditions: at 0.1 mM.
Assay [12] has as its system Bifidobacterium longum subsp. infantis. Particulars: ATCC 15697, at 1 mM.
For the next assay, the target named is Sialidase (Vibrio cholerae serotype O1 (strain ATCC 39315 / El Tor Inaba N16961), UniProt P0C6E9). Kind of assay: Inhibition of Vibrio cholerae sialidase using Neu5Acalpha2-3GalbetapNP as substrate after 30 mins by colorimetric assay.
Sequence of Sialidase (P0C6E9 whole entry, one chain of several): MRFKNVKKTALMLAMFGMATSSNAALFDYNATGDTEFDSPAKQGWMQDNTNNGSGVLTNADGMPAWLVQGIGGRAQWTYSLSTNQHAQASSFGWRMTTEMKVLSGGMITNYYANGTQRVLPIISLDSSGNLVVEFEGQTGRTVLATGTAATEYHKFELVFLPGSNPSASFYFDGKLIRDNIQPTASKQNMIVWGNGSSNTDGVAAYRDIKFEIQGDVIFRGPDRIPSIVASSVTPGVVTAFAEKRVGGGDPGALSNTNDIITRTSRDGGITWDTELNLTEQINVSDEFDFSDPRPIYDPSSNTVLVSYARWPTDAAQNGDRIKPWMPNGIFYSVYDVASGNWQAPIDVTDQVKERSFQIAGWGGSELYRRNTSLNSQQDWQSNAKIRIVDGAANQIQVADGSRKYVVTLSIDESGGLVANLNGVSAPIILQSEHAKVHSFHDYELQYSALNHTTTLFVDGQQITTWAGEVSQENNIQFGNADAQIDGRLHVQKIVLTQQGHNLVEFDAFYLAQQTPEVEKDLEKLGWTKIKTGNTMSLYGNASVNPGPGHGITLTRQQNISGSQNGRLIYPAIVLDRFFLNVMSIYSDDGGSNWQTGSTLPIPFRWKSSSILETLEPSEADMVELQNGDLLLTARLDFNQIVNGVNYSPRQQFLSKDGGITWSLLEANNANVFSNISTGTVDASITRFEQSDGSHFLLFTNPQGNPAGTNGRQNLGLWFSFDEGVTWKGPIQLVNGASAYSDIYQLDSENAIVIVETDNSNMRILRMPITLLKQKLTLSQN
In assay [13] the target is T4, Sialidase (Clostridium perfringens). Particulars: at 1 mM.
Another assay deals with Sialidase A (Streptococcus pneumoniae, UniProt P62575). The assay can be described thus: Inhibition of Streptococcus pneumoniae NanA using Neu5Acalpha2-3GalbetapNP as substrate after 30 mins by colorimetric assay.
Sequence of Sialidase A (P62575 whole entry): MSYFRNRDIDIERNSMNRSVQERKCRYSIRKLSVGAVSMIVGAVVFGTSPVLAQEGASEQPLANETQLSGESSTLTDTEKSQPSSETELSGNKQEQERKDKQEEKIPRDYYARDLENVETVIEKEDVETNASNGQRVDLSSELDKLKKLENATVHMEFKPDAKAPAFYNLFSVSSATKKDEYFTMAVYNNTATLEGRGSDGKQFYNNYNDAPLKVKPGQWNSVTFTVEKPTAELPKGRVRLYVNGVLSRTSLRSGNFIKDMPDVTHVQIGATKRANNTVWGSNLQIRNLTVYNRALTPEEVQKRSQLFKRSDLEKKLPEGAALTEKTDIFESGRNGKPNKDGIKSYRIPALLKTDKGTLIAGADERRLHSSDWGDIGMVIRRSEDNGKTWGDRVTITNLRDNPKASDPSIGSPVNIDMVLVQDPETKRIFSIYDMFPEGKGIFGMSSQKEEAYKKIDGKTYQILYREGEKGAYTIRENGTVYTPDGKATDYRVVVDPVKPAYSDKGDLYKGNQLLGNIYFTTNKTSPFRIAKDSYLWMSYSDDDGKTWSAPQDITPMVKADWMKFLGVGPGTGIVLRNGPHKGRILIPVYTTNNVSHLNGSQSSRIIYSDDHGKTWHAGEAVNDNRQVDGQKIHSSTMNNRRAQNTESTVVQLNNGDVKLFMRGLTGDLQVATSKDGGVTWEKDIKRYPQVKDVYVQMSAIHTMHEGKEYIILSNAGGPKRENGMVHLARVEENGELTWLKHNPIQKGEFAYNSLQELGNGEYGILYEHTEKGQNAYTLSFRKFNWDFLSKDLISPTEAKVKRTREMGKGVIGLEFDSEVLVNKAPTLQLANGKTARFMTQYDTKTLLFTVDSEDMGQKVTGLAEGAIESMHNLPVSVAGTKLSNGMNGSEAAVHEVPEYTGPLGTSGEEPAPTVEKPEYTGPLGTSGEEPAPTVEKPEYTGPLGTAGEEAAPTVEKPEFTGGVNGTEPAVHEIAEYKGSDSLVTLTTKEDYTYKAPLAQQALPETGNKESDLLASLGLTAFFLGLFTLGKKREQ
Assay [14] relates to Paenarthrobacter ureafaciens. Particulars: at 0.1 mM.
The target of assay [15] is Sialidase (Vibrio cholerae serotype O1 (strain ATCC 39315 / El Tor Inaba N16961)) (UniProt P0C6E9). As to conditions: at 1 mM.
Sequence of Sialidase (Vibrio cholerae serotype O1 (strain ATCC 39315 / El Tor Inaba N16961)) (P0C6E9 whole entry, one chain of several): as the sequence (P0C6E9 whole entry, one chain of several) above
The target in assay [16] is T5, Sialidase B (Streptococcus pneumoniae serotype 4 (strain ATCC BAA-334 / TIGR4)). As to conditions: at 1 mM.
For assay [17], the system named is Paenarthrobacter ureafaciens. As to conditions: at 1 mM.
Assay [18] concerns Pasteurella multocida. Particulars: at 0.1 mM.
Assay [19] addresses Sialidase A (Streptococcus pneumoniae) (UniProt P62575). As to conditions: at 1 mM.

Broadly, the IC50 is the concentration needed to halve the response being measured. Lower therefore signals inhibition by little substance. One may read the inhibition as the drop in the measured response relative to a control, in per cent. High values mean a response far below the control, low ones a response near the control.

Sequence of Sialidase A (Streptococcus pneumoniae) (P62575 whole entry): as the sequence (P62575 whole entry) above

With `CC(=O)N[C@H]1[C@H]([C@H](O)[C@H](O)Cn2cc(C[C@H](NC(=O)[C@@H](N)CCC(=O)O)C(=O)N[C@@H](CCCCN)C(=O)N[C@@H](CCC(=O)O)C(N)=O)nn2)OC(C(=O)O)=C[C@@H]1O`, the IC50 (in assay [1]; at Neuraminidase C; in [2]) was > 1000 µM each time. The inhibition in assay [3] was determined as 9.8%.
With `CC(=O)N[C@H]1[C@H]([C@H](O)[C@H](O)Cn2cc(C[C@H](N)C(=O)N[C@H](CCC(=O)O)C(N)=O)nn2)OC(C(=O)O)=C[C@@H]1O`, the concentration for half-maximal inhibition (IC50) against Sialidase B was > 1000 µM; at Neuraminidase C it was > 1000 µM; in [8], 1.87 µM; in [2] it was > 1000 µM; against Sialidase it was 10.9 µM; against Sialidase A it was 65.6 µM. Also, the inhibition in [4] is 13.5%; in [5] it was 48.9%; in [6], 12.6%; in assay [7] it was 85.8%; in the assay on Pasteurella multocida [9], 6%; in assay [10] it was 3.3%. Also, the inhibition was 61.9% in assay [11]; 29.7% in assay [3]; 76.4% in assay [12]; 84.6% in [13]; 95.7% in assay [14]; 93.5% in assay [15]. For the same compound, the inhibition in [16] is 39%; in [17], 96.2%; with Pasteurella multocida [18], 0.1%; in assay [19] it was 94.7%.
Turning to `CC(=O)N[C@H]1[C@H]([C@H](O)[C@H](O)CO)OC(C(=O)O)=C[C@@H]1O` [NEU5AC2EN], the inhibition in assay [4] amounted to 6.3%; in assay [5] it was 72.1%; in [6] it was 2.7%; in [7], 88.2%; with Pasteurella multocida [9], 9.3%; in assay [11] it was 94.9%. Also, the inhibition in assay [3] amounted to 23.7%; in assay [13], 92.6%; in assay [14], 95.8%; in assay [15] it was 94.5%; in assay [16] it was 31.9%; in assay [17], 99%. The inhibition is 2.1% in the assay on Pasteurella multocida [18] and 99.9% in assay [19]. Further, the concentration for half-maximal inhibition (IC50) against Neuraminidase C is > 1000 µM; in assay [8] it was 8.1 µM; in [2] it was > 1000 µM.
Take `CC(=O)N[C@H]1[C@H]([C@H](O)[C@H](O)CN=[N+]=[N-])OC(C(=O)O)=C[C@@H]1O`: the IC50 was 100 to 1000 µM in [1]; > 1000 µM against Sialidase B; > 1000 µM against Neuraminidase C; 0.72 µM in assay [8]; > 1000 µM in assay [2]; 20 µM at Sialidase. Further, the IC50 against Sialidase A turned out to be 44.3 µM. The inhibition in assay [4] was 13.4%; in [5] it was 57.1%; in [6], 6.6%; in assay [7], 86%; in the assay on Pasteurella multocida [9], 14.9%; in [10], 49.4%. For the same compound, the inhibition was determined as 78.6% in assay [11]; 39.2% in [3]; 86.7% in assay [12]; 89.3% in assay [13]; 99.2% in assay [14]; 95.6% in assay [15]. For the same compound, the inhibition in [16] was 35.2%; in assay [17], 99.5%; in the assay with Pasteurella multocida [18], 1.7%; in assay [19], 98.8%.
Regarding `CC(=O)N[C@H]1[C@H]([C@H](O)[C@H](O)Cn2cc(C[C@H](N)C(=O)O)nn2)OC(C(=O)O)=C[C@@H]1O`, the half-inhibitory concentration (IC50) in assay [1] was > 1000 µM; against Sialidase B, > 1000 µM; against Neuraminidase C it was > 1000 µM; in assay [2], > 1000 µM; on Sialidase it was 13.5 µM; at Sialidase A, 100 to 1000 µM. The inhibition in assay [4] was 15.3%; in assay [5], 17.6%; in assay [6], 8.8%; in [7], 82%; with Pasteurella multocida [9], 9.1%; in [10] it was 0%. In addition, the inhibition in [11] worked out at 42.9%; in assay [3] it was 47.8%; in [12], 14.7%; in [13], 69.7%; in assay [14], 42.1%; in assay [15], 93.2%. Also, the inhibition was 35.5% in assay [16], 85.6% in [17], 2.8% in the assay on Pasteurella multocida [18] and 84.4% in [19].
